One experiment concerns Bacillus licheniformis. Briefly: Antibacterial activity against Bacillus licheniformis EMR by M07-A9 CLSI method. In kind it is functional.
In another experiment the test system is Bacillus cereus. Briefly: Antibacterial activity against Bacillus cereus ATCC 27348 by M07-A9 CLSI method. Format: functional.
In another experiment the test system is Pseudomonas aeruginosa. Briefly: Antibacterial activity against Pseudomonas aeruginosa 6065Y by M07-A9 CLSI method. Format: functional.
In a further experiment the test system is Kocuria rhizophila. Briefly: Antibacterial activity against Micrococcus luteus ATCC 9341 by M07-A9 CLSI method. Format: functional.
In the next experiment the test system is Klebsiella pneumoniae. Briefly: Antibacterial activity against Klebsiella pneumoniae 2011E by M07-A9 CLSI method. Format: functional.
In the next experiment the test system is Bacillus subtilis. Briefly: Antibacterial activity against Bacillus subtilis ATCC 6633 by M07-A9 CLSI method. In kind it is functional.
A further experiment has as its system Proteus vulgaris. Briefly: Antibacterial activity against Proteus vulgaris 6059 by M07-A9 CLSI method. In kind it is functional.
Another experiment concerns Klebsiella aerogenes. Briefly: Antibacterial activity against Klebsiella aerogenes (SHV-1) 1976E by M07-A9 CLSI method. Format: functional.
In the next experiment the test system is Enterococcus faecalis. Briefly: Antibacterial activity against Enterococcus faecalis ATCC 29212 by M07-A9 CLSI method. In kind it is functional.
The subject of a further experiment is Escherichia coli. Briefly: Antibacterial activity against Escherichia coli ATCC 25922 by M07-A9 CLSI method. Format: functional.
Another experiment relates to Salmonella typhimurium. Briefly: Antibacterial activity against Salmonella typhimurium ATCC 13311 by M07-A9 CLSI method. In kind it is functional, Salmonella enterica subsp. enterica serovar Typhimurium. To be noted: Salmonella enterica.
Experiment [1] relates to Staphylococcus aureus. Briefly: Antibacterial activity against Staphylococcus aureus ATCC 25923 by M07-A9 CLSI method. In kind it is functional.
For experiment [2], the system named is Staphylococcus epidermidis. Briefly: Antibacterial activity against Staphylococcus epidermidis 887E by M07-A9 CLSI method. Format: functional.
The subject of experiment [3] is Staphylococcus aureus. Briefly: Antibacterial activity against Staphylococcus aureus Giorgio by M07-A9 CLSI method. In kind it is functional.
The test system of experiment [4] is Staphylococcus aureus. Briefly: Antibacterial activity against Staphylococcus aureus 77 by M07-A9 CLSI method. In kind it is functional.
In experiment [5] the test system is Staphylococcus aureus. Briefly: Antibacterial activity against Staphylococcus aureus ATCC 6538P by M07-A9 CLSI method. In kind it is functional.
Experiment [6] has as its system Staphylococcus aureus. Briefly: Antibacterial activity against Staphylococcus aureus 241 by M07-A9 CLSI method. In kind it is functional.

≈ marks a conversion by molar mass, not a printed value.

Usually MIC stands for the lowest concentration that inhibits growth of the organism. Read a high MIC as a less susceptible organism.

For the molecule `CN[C@H](CC(C)C)C(=O)N[C@H]1C(=O)N[C@@H](CC(N)=O)C(=O)N[C@H]2C(=O)N[C@H]3C(=O)N[C@H](C(=O)N[C@H](C(=O)O)c4cc(O)cc(O)c4-c4cc3ccc4O)[C@H](O)c3ccc(c(Cl)c3)Oc3cc2cc(c3O[C@@H]2O[C@H](CO)[C@@H](O)[C@H](O)[C@H]2O[C@H]2C[C@](C)(N)[C@H](O)[C@H](C)O2)Oc2ccc(cc2Cl)[C@H]1O` [VANCOMYCIN], the MIC is greater than 32 µg/mL with Bacillus licheniformis; greater than 32 µg/mL against Bacillus cereus; greater than 32 µg/mL against Pseudomonas aeruginosa; 1 µg/mL (≈ 0.69 µM) with Kocuria rhizophila; greater than 32 µg/mL in the experiment on Klebsiella pneumoniae; 2 µg/mL (≈ 1.38 µM) in the experiment with Bacillus subtilis. Also, the MIC against Proteus vulgaris is greater than 32 µg/mL; against Klebsiella aerogenes, greater than 32 µg/mL; in the experiment on Enterococcus faecalis, 2 µg/mL (≈ 1.38 µM); in the experiment on Escherichia coli, greater than 32 µg/mL; in the experiment with Salmonella typhimurium, greater than 32 µg/mL.

Consider `CC(C)CCC[C@@H](C)[C@H]1CC[C@H]2[C@@H]3[C@H](NCc4ccccn4)C[C@H]4C[C@H](NCc5ccccn5)CC[C@]4(C)[C@H]3CC[C@]12C`, for which the MIC stood at 2 µg/mL (≈ 3.42 µM) with Staphylococcus aureus [1]; 1 µg/mL (≈ 1.71 µM) in experiment [2]; 2 µg/mL (≈ 3.42 µM) against Bacillus licheniformis; 2 µg/mL (≈ 3.42 µM) against Staphylococcus aureus [3]; 2 µg/mL (≈ 3.42 µM) with Staphylococcus aureus [4]; 2 µg/mL (≈ 3.42 µM) against Staphylococcus aureus [5]. Further, the MIC with Bacillus cereus is 8 µg/mL (≈ 13.7 µM); against Pseudomonas aeruginosa it was greater than 32 µg/mL; in the experiment on Kocuria rhizophila, 2 µg/mL (≈ 3.42 µM); against Klebsiella pneumoniae, greater than 32 µg/mL; with Staphylococcus aureus [6] it was 2 µg/mL (≈ 3.42 µM); against Bacillus subtilis, 2 µg/mL (≈ 3.42 µM). Also, the MIC is greater than 32 µg/mL against Proteus vulgaris; greater than 32 µg/mL against Klebsiella aerogenes; 4 µg/mL (≈ 6.84 µM) with Enterococcus faecalis; greater than 32 µg/mL against Escherichia coli; greater than 32 µg/mL with Salmonella typhimurium.

As for `CC(C)CCC[C@@H](C)[C@H]1CC[C@H]2[C@@H]3[C@H](NCCCn4ccnc4)C[C@H]4C[C@H](NCCCn5ccnc5)CC[C@]4(C)[C@H]3CC[C@]12C`, the minimum inhibitory concentration (MIC) was 2 µg/mL (≈ 3.23 µM) with Staphylococcus aureus [1]; 4 µg/mL (≈ 6.46 µM) in experiment [2]; 4 µg/mL (≈ 6.46 µM) in the experiment on Bacillus licheniformis; 4 µg/mL (≈ 6.46 µM) in the experiment on Staphylococcus aureus [3]; 4 µg/mL (≈ 6.46 µM) against Staphylococcus aureus [4]; 2 µg/mL (≈ 3.23 µM) in the experiment on Staphylococcus aureus [5]. Also, the MIC with Bacillus cereus is 8 µg/mL (≈ 12.9 µM); with Pseudomonas aeruginosa it was greater than 32 µg/mL; against Kocuria rhizophila, 4 µg/mL (≈ 6.46 µM); in the experiment on Klebsiella pneumoniae, greater than 32 µg/mL; against Staphylococcus aureus [6], 4 µg/mL (≈ 6.46 µM); against Bacillus subtilis, 4 µg/mL (≈ 6.46 µM). Further, the MIC in the experiment on Proteus vulgaris was greater than 32 µg/mL; with Klebsiella aerogenes, greater than 32 µg/mL; against Enterococcus faecalis it was 4 µg/mL (≈ 6.46 µM); in the experiment on Escherichia coli it was greater than 32 µg/mL; in the experiment on Salmonella typhimurium it was greater than 32 µg/mL.

On to `CC(C)CCC[C@@H](C)[C@H]1CC[C@H]2[C@@H]3[C@H](NCCn4ccnc4)C[C@H]4C[C@H](NCCn5ccnc5)CC[C@]4(C)[C@H]3CC[C@]12C`, for which the MIC with Staphylococcus aureus [1] is 8 µg/mL (≈ 13.5 µM); in [2], 16 µg/mL (≈ 27.1 µM); in the experiment on Bacillus licheniformis, 32 µg/mL (≈ 54.2 µM); with Staphylococcus aureus [3] it was 4 µg/mL (≈ 6.77 µM); in the experiment on Staphylococcus aureus [4], 4 µg/mL (≈ 6.77 µM); in the experiment with Staphylococcus aureus [5], 4 µg/mL (≈ 6.77 µM). The MIC was 16 µg/mL (≈ 27.1 µM) against Bacillus cereus; greater than 32 µg/mL with Pseudomonas aeruginosa; 4 µg/mL (≈ 6.77 µM) with Kocuria rhizophila; greater than 32 µg/mL against Klebsiella pneumoniae; 16 µg/mL (≈ 27.1 µM) in the experiment on Staphylococcus aureus [6]; 8 µg/mL (≈ 13.5 µM) against Bacillus subtilis. In addition, the MIC was greater than 32 µg/mL with Proteus vulgaris; greater than 32 µg/mL with Klebsiella aerogenes; 16 µg/mL (≈ 27.1 µM) in the experiment with Enterococcus faecalis; greater than 32 µg/mL against Escherichia coli; greater than 32 µg/mL against Salmonella typhimurium.

As to `CC(C)CCC[C@@H](C)[C@H]1CC[C@H]2[C@@H]3[C@H](NCCc4ccccn4)C[C@H]4C[C@H](NCCc5ccccn5)CC[C@]4(C)[C@H]3CC[C@]12C`, the MIC came to 8 µg/mL (≈ 13.1 µM) in the experiment with Staphylococcus aureus [1]; 8 µg/mL (≈ 13.1 µM) in experiment [2]; 8 µg/mL (≈ 13.1 µM) against Bacillus licheniformis; 8 µg/mL (≈ 13.1 µM) in the experiment with Staphylococcus aureus [3]; 16 µg/mL (≈ 26.1 µM) against Staphylococcus aureus [4]; 8 µg/mL (≈ 13.1 µM) with Staphylococcus aureus [5]. Besides, the minimal inhibitory concentration (MIC) in the experiment with Bacillus cereus is 32 µg/mL (≈ 52.2 µM); in the experiment on Pseudomonas aeruginosa it was greater than 32 µg/mL; with Kocuria rhizophila, 8 µg/mL (≈ 13.1 µM); in the experiment on Klebsiella pneumoniae, greater than 32 µg/mL; against Staphylococcus aureus [6] it was 8 µg/mL (≈ 13.1 µM); in the experiment on Bacillus subtilis it was 8 µg/mL (≈ 13.1 µM). Also, the minimum inhibitory concentration (MIC) against Proteus vulgaris was greater than 32 µg/mL; in the experiment with Klebsiella aerogenes it was greater than 32 µg/mL; against Enterococcus faecalis, 16 µg/mL (≈ 26.1 µM); against Escherichia coli, greater than 32 µg/mL; against Salmonella typhimurium, greater than 32 µg/mL.

With `CC(C)CCC[C@@H](C)[C@H]1CC[C@H]2[C@@H]3C(=O)C[C@H]4C[C@H](NCCc5ccccn5)CC[C@]4(C)[C@H]3CC[C@]12C`, the MIC against Staphylococcus aureus [1] was 8 µg/mL (≈ 15.8 µM); in [2], 16 µg/mL (≈ 31.6 µM); in the experiment on Bacillus licheniformis, 32 µg/mL (≈ 63.1 µM); in the experiment on Staphylococcus aureus [3] it was 8 µg/mL (≈ 15.8 µM); against Staphylococcus aureus [4], 32 µg/mL (≈ 63.1 µM); against Staphylococcus aureus [5] it was 8 µg/mL (≈ 15.8 µM). In addition, the minimum inhibitory concentration (MIC) was greater than 32 µg/mL against Bacillus cereus; greater than 32 µg/mL in the experiment on Pseudomonas aeruginosa; 32 µg/mL (≈ 63.1 µM) in the experiment on Kocuria rhizophila; greater than 32 µg/mL with Klebsiella pneumoniae; greater than 32 µg/mL in the experiment on Staphylococcus aureus [6]; 32 µg/mL (≈ 63.1 µM) against Bacillus subtilis. Moreover, the minimal inhibitory concentration (MIC) with Proteus vulgaris was greater than 32 µg/mL; in the experiment with Klebsiella aerogenes it was greater than 32 µg/mL; with Enterococcus faecalis, 16 µg/mL (≈ 31.6 µM); against Escherichia coli, greater than 32 µg/mL; in the experiment on Salmonella typhimurium, greater than 32 µg/mL.

On to `CC(C)CCC[C@@H](C)[C@H]1CC[C@H]2[C@@H]3C(=O)C[C@H]4C[C@H](NCCc5cnc[nH]5)CC[C@]4(C)[C@H]3CC[C@]12C`, for which the MIC with Staphylococcus aureus [1] was determined as 16 µg/mL (≈ 32.3 µM); in experiment [2], 16 µg/mL (≈ 32.3 µM); against Bacillus licheniformis, 32 µg/mL (≈ 64.5 µM); against Staphylococcus aureus [3] it was 16 µg/mL (≈ 32.3 µM); in the experiment on Staphylococcus aureus [4], 16 µg/mL (≈ 32.3 µM); against Staphylococcus aureus [5] it was 8 µg/mL (≈ 16.1 µM). The minimal inhibitory concentration (MIC) is 32 µg/mL (≈ 64.5 µM) against Bacillus cereus; greater than 32 µg/mL in the experiment with Pseudomonas aeruginosa; 16 µg/mL (≈ 32.3 µM) in the experiment with Kocuria rhizophila; greater than 32 µg/mL in the experiment on Klebsiella pneumoniae; 32 µg/mL (≈ 64.5 µM) with Staphylococcus aureus [6]; 32 µg/mL (≈ 64.5 µM) in the experiment with Bacillus subtilis. The MIC was greater than 32 µg/mL with Proteus vulgaris; greater than 32 µg/mL against Klebsiella aerogenes; 16 µg/mL (≈ 32.3 µM) against Enterococcus faecalis; greater than 32 µg/mL against Escherichia coli; greater than 32 µg/mL in the experiment on Salmonella typhimurium.

As to `CC(C)CCC[C@@H](C)[C@H]1CC[C@H]2[C@@H]3[C@H](NCCc4cnc[nH]4)C[C@H]4C[C@H](NCCc5cnc[nH]5)CC[C@]4(C)[C@H]3CC[C@]12C` [3ALPHA,7ALPHA-BIS[2-(5-IMIDAZOLYL)ETHYL]AMINO-5ALPHA-CHOLESTANE], the MIC against Staphylococcus aureus [1] was 8 µg/mL (≈ 13.5 µM); in [2], 8 µg/mL (≈ 13.5 µM); in the experiment on Bacillus licheniformis it was greater than 32 µg/mL; against Staphylococcus aureus [3], 8 µg/mL (≈ 13.5 µM); with Staphylococcus aureus [4] it was 8 µg/mL (≈ 13.5 µM); in the experiment on Staphylococcus aureus [5] it was 4 µg/mL (≈ 6.77 µM). Moreover, the minimum inhibitory concentration (MIC) was 32 µg/mL (≈ 54.2 µM) against Bacillus cereus; greater than 32 µg/mL against Pseudomonas aeruginosa; 16 µg/mL (≈ 27.1 µM) against Kocuria rhizophila; greater than 32 µg/mL with Klebsiella pneumoniae; 8 µg/mL (≈ 13.5 µM) in the experiment with Staphylococcus aureus [6]; greater than 32 µg/mL in the experiment on Bacillus subtilis. In addition, the minimum inhibitory concentration (MIC) against Proteus vulgaris is greater than 32 µg/mL; in the experiment on Klebsiella aerogenes, greater than 32 µg/mL; against Enterococcus faecalis, 8 µg/mL (≈ 13.5 µM); against Escherichia coli it was greater than 32 µg/mL; in the experiment on Salmonella typhimurium, greater than 32 µg/mL.

The record behind these values is ChEMBL document CHEMBL2407054, “Synthesis and antimicrobial activity of imidazole and pyridine appended cholestane-based conjugates” (2013).
